Consider seven compounds from ChEMBL document CHEMBL5370662, “Reactive Oxygen Species-Activated Metal-Free Carbon Monoxide Prodrugs for Targeted Cancer Treatment” (J Med Chem, 2023).

Data set [1] in a line: Prodrug conversion in PBS buffer assessed as carbon monoxide release by measuring half life at pH 7.4 at 25 uM by HPLC analysis. It counts as ADME. The following applies: pH 7.4, 25 µM.
The nature of data set [2]: Prodrug conversion in PBS buffer assessed as carbon monoxide release by measuring half life at pH 7.4 at 25 uM in presence of H2O2 by HPLC analysis. It counts as ADME. The following applies: pH 7.4, 25 µM.
The nature of data set [3]: Prodrug conversion in Balb/c mouse implanted with mouse 4T1 cells assessed as carbon monoxide release in tumor by measuring red fluorescence at 10 mg/kg, iv incubated for 6 hrs followed by 1-Ac probe addition by hoechst dye based confocal laser scanning microscopic analysis. Format: ADME, organism-based. The note with it: in vivo.
Data set [4] can be described thus: Toxicity in Balb/c mouse implanted with mouse 4T1 cells assessed as increase in survival rate at 10 mg/kg, iv administered on day 0,3, and 5 measured after 24 days (reference value: 27 days). The following applies: in vivo, 576 h, time 24 day. It counts as organism-based.
Data set [5] is described as follows: Toxicity in Balb/c mouse implanted with mouse 4T1 cells assessed as change in body weight at 10 mg/kg, iv administered on day 0,3, and 5 measured after 24 days. Format: organism-based. The note with it: in vivo, 576 h, time 24 day.
Data set [6] deals with 4T1. In words: Antiproliferative activity against mouse 4T1 cells assessed as inhibition of cell growth measured after 24 hrs by Cell Counting Kit-8 assay. It counts as functional, cell-based. The following applies: for IC50: 4T1, 24 h.
Data set [7] is described as follows: Prodrug conversion in 1-Ac probed mouse 4T1 cells assessed as carbon monoxide release by measuring red fluorescence at 20 uM incubated for 6 hrs by hoechst dye based confocal laser scanning microscopic analysis. It counts as ADME, cell-based. The following applies: 4t1, 6 h.
Data set [8] relates to Panc02. In words: Antiproliferative activity against Panc02 cells assessed as inhibition of cell growth measured after 24 hrs by Cell Counting Kit-8 assay. The note with it: Mus musculus. Format: functional, cell-based.
Data set [9] has as its system 4T1. The data set can be described thus: Antitumor activity against mouse 4T1 cells implanted in Balb/c mouse assessed as fold change in tumor volume at 10 mg/kg, iv administered on day 0,3, and 5 measured after 24 days (reference value: 25.5). Format: functional. The note with it: for fold change (FC): time 24 day; for Activity: time 24.0 day.
The subject of data set [10] is 4T1. In words: Antiproliferative activity against mouse 4T1 cells assessed as inhibition of cell growth upto 100 uM measured after 24 hrs by Cell Counting Kit-8 assay. Format: functional, cell-based.
Data set [11] deals with Panc02. The data set can be described thus: Antiproliferative activity against Panc02 cells assessed as inhibition of cell growth upto 100 uM measured after 24 hrs by Cell Counting Kit-8 assay. It counts as functional, cell-based. The note with it: Mus musculus.
Data set [12] can be described thus: Prodrug conversion in PBS buffer assessed as formation of oxidized intermediate by measuring half life at pH 7.4 at 25 uM measured after 24 hrs in presence of H2O2 by HPLC analysis. It counts as ADME. The note with it: pH 7.4, 24 h.
Data set [13] is described as follows: Prodrug conversion in PBS buffer assessed as formation of 3',6'-dimethyl-[1,1':2',1''-terphenyl]-4'-carbonitrile by measuring half life at pH 7.4 at 25 uM measured after 24 hrs in presence of H2O2 by HPLC analysis. Format: ADME. The note with it: pH 7.4, 24 h.

Activity calls are given as the source filed them. The rule behind the calls is not given here.

On to `Cc1ccc(S[C@H]2C(C=O)[C@]3(C)C(=O)[C@]2(C)C(c2ccccc2)=C3c2ccccc2)cc1` (stereo partly specified), for which the t1/2 in [1] is 3 h; in data set [2], 2.2 h.
Turning to `CCCCCS[C@H]1C(C=O)[C@]2(C)C(=O)[C@]1(C)C(c1ccccc1)=C2c1ccccc1` (stereo partly specified), the Drug metabolism result in data set [3] and in data set [7] was “Metabolite_Detected” in each case. Also, the Survival in data set [4] came to 42 days. Moreover, the t1/2 was found to be 81.6 h in data set [1] and 3.4 h in [2]. For the same compound, the Activity entry in [5] is listed as “Non-Toxic”. Further, the IC50 turned out to be 29.4 µM in [6] and 72.5 µM in data set [8] (Panc02, 24 h). In addition, in data set [9], the “fold change (FC)” value worked out at 9.4.
Turning to `Cc1cc(C#N)c(C)c(-c2ccccc2)c1-c1ccccc1`, the outcome in [10], in data set [11] and in data set [9] was inactive.
For the compound `Cc1ccc(S[C@H]2C(C#N)[C@]3(C)C(=O)[C@]2(C)C(c2ccccc2)=C3c2ccccc2)cc1` (stereo partly specified), the t1/2 came out at 2 h in [12] and 12 h in data set [13].
For `Cc1cc(C=O)c(C)c(-c2ccccc2)c1-c1ccccc1`, the result in [6], in [8] and in [9] was inactive.
In the case of `CCCCCS[C@H]1C(C#N)[C@]2(C)C(=O)[C@]1(C)C(c1ccccc1)=C2c1ccccc1` (stereo partly specified), the Drug metabolism result in data set [3] and in data set [7] was “Metabolite_Detected” in each case. Also, the figures for the t1/2 in data set [12] and in [13] were 2 h and 12 h, respectively. The result in data set [11] was inactive. For the same compound, in data set [6], the IC50 was greater than 100 µM. The “fold change (FC)” value in [9] is listed as 16.5.
Regarding `CCCCCS[C@H]1C(C(=O)OC)[C@]2(C)C(=O)[C@]1(C)C(c1ccccc1)=C2c1ccccc1` (stereo partly specified), the Drug metabolism result in data set [3] and in data set [7] was “Metabolite_Notdetected” throughout. Also, the result in data set [6], in data set [8] and in data set [9] was inactive.
